Source: patent publication US9556165B2 (priority 2012, dated 2017)

Columns and labels:
Assay type in all cases: cell-based
E. coli ATCC25922 = experiment: MIC determination, broth microdilution (CLSI); details: strain 1
K. pneumoniae 60 = experiment: MIC determination, broth microdilution (CLSI); details: strain 2
E. cloacae 34654 = experiment: MIC determination, broth microdilution (CLSI); details: strain 3
C. freundii K21/3034 = experiment: MIC determination, broth microdilution (CLSI); details: strain 4
M. morganii 126/3048 = experiment: MIC determination, broth microdilution (CLSI); details: strain 5
P. aeruginosa PAO1 = experiment: MIC determination, broth microdilution (CLSI); details: strain 6
[1] = test system: P. aeruginosa 2297 (AmpC wt); experiment: MIC determination, broth microdilution (CLSI)
[2] = test system: P. aeruginosa 2297-con (AmpC derepressed); experiment: MIC determination, broth microdilution (CLSI)
A. baumannii ATCC15308 = experiment: MIC determination, broth microdilution (CLSI)
S. maltophilia ICB7569 = experiment: MIC determination, broth microdilution (CLSI)
S. aureus 133 = experiment: MIC determination, broth microdilution (CLSI)
M. catarrhalis ICB489 = experiment: MIC determination, broth microdilution (CLSI); details: strain 12
H. influenzae ATCC 49247 = experiment: MIC determination, broth microdilution (CLSI)
B. fragilis 6688 = experiment: MIC determination, broth microdilution (CLSI)
C. perfringens DSM756 = experiment: microbe, parasite or virus in culture; details: strain 16
E. coli J62 = experiment: MIC determination, broth microdilution (CLSI); details: strain 17
E. coli J62-TEM-3 = experiment: MIC determination, broth microdilution (CLSI); details: for MIC: Escherichia coli, J62TEM3, read-out: strain 18 MIC, strain 18
strain 19 = experiment: MIC determination, broth microdilution (CLSI)
strain 20 = experiment: MIC determination, broth microdilution (CLSI)
strain 21 = experiment: MIC determination, broth microdilution (CLSI)

Compound | strain 1 MIC (E. coli ATCC25922) [µg/mL] | strain 2 MIC (K. pneumoniae 60) [µg/mL] | strain 3 MIC (E. cloacae 34654) [µg/mL] | strain 4 MIC (C. freundii K21/3034) [µg/mL] | strain 5 MIC (M. morganii 126/3048) [µg/mL] | strain 6 MIC (P. aeruginosa PAO1) [µg/mL] | strain 7 MIC [1] [µg/mL] | strain 8 MIC [2] [µg/mL] | strain 9 MIC (A. baumannii ATCC15308) [µg/mL] | strain 12 MIC (M. catarrhalis ICB489) | strain 15 MIC (B. fragilis 6688) [µg/mL] | strain 16 MIC (C. perfringens DSM756) [µg/mL] | strain 17 MIC (E. coli J62) [µg/mL] | MIC (E. coli J62-TEM-3) [µg/mL] | strain 19 MIC (strain 19) [µg/mL] | strain 20 MIC (strain 20) [µg/mL] | strain 21 MIC (strain 21) [µg/mL] | strain 10 MIC (S. maltophilia ICB7569) [µg/mL] | strain 11 MIC (S. aureus 133) | strain 13 MIC (H. influenzae ATCC 49247) [µg/mL] | other results
CC1(C)[C@H](NC(=O)/C(=N\OC(COc2ccc(C(=N)N)cc2)C(=O)O)c2csc(N)n2)C(=O)N1OS(=O)(=O)O (mixture of isomers) [Example 27A, (2S and 2R)-2-({[(1Z)-1-(2-Amino-1,3-thiazol-4-yl)-2-{[(3S)-2,2-dimethyl-4-oxo-1-(sulfo-oxy)azetidin-3-yl]amino}-2-oxoethylidene]amino}oxy)-3-(4-carbamimidoylphenoxy)-propanoic acid] | 0.25 | 0.125 | 0.25 | 0.25 | 0.125 | 4 | 4 | 4 | 4 | ≦0.063 mg/L | 8 | 4 | 0.25 | 8 | 0.25 | 0.25 | 0.25 | – | – | – | MIC (S. maltophilia ICB7569; Stenotrophomonas maltophilia, ICB7569, strain 10): 4 µg/mL; MIC (S. aureus 133; Staphylococcus aureus, 133, strain 11, read-out: strain 11 MIC): ≤ 0.063 µg/mL; MIC (H. influenzae ATCC 49247; Haemophilus influenzae, ATCC49247, strain 13, read-out: strain 13 MIC): 0.5 µg/mL
CC1(C)[C@H](NC(=O)/C(=N\OC(COc2ccc(C(=N)N)cc2)C(=O)O)c2csc(N)n2)C(=O)N1OS(=O)(=O)O (mixture of isomers) [Example 27B, (2S and 2R)-2-({[(1Z)-1-(2-Amino-1,3-thiazol-4-yl)-2-{[(3S)-2,2-dimethyl-4-oxo-1-(sulfo-oxy)azetidin-3-yl]amino}-2-oxoethylidene]amino}oxy)-3-(4-carbamimidoylphenoxy)-propanoic acid] | 2 | 1 | 4 | 1 | 1 | 16 | 32 | 16 | 16 | 0.25 µg/mL | 32 | 32 | 2 | – | 1 | 2 | 2 | 8 | 0.125 µg/mL | 0.5 | strain 18 MIC (E. coli J62-TEM-3; strain 18): 8 µg/mL
CC1(C)[C@H](NC(=O)/C(=N\OC(COc2ccc(C(=N)N)c(O)c2)C(=O)O)c2csc(N)n2)C(=O)N1OS(=O)(=O)O (mixture of isomers) [Example 34A, (2S and 2R)-2-({[(1Z)-1-(2-Amino-1,3-thiazol-4-yl)-2-{[(3S)-2,2-dimethyl-4-oxo-1-(sulfo-oxy)azetidin-3-yl]amino}-2-oxoethylidene]amino}oxy)-3-(4-carbamimidoyl-3-hydroxyphenoxy)propanoic acid] | 1 | 1 | 0.5 | 1 | 0.25 | 8 | 8 | – | – | ≦0.063 mg/L | – | 2 | 1 | 32 | 0.5 | 0.5 | 0.5 | 8 | ≦0.063 mg/L | 0.5 | MIC ([2]; Pseudomonas aeruginosa, read-out: strain 8 MIC, strain 8): 16 µg/mL; MIC (A. baumannii ATCC15308; Acinetobacter baumannii, ATCC15308, strain 9): 32 µg/mL; MIC (B. fragilis 6688; Bacteroides fragilis, 6688, strain 15, read-out: strain 15 MIC): 16 µg/mL
